Data on 21 molecules can be found in patent publication US10155768B2, “Fused pyrimidine compound or salt thereof” (TAIHO PHARMACEUTICAL CO., LTD., priority 2016, dated 2018).

This data set is described as follows: Evaluation of stability in liver microsome. As to conditions: mouse liver microsome 0.25 mg/mL, 1 μM test compound, 37° C. for 30 minutes. (Liver microsomes are vesicles of endoplasmic reticulum, rich in cytochrome P450 enzymes.)
Method: Solutions of the test compounds in DMSO/acetonitrile (the final concentration of each test compound was 1 μM, the final concentration of DMSO was 0.01%, and the final concentration of acetonitrile was 1%) were individually added to a liver microsome mixture solution (mouse liver microsome with a final concentration of 0.25 mg/mL, a potassium phosphate buffer with a final concentration of 100 mM, and magnesium chloride with a final concentration of 3 mM), and each mixture was pre-incubated at 37° C. for 5 minutes. […] After incubation at 37° C. for 30 minutes, a double amount of ethanol was added thereto to terminate the reaction, thereby obtaining post-reaction samples. A double amount of ethanol was added to each of the remaining mixture solutions, and a NADPH-generating system was further added thereto, thereby obtaining pre-reaction samples. The pre-reaction samples and post-reaction samples were centrifuged at 2000×g, and their supernatant was filtered through a glass filter. Each filtrate was then introduced into LC-MS/MS, and MS/MS peaks of the test compounds were detected. From the ratio of the post-reaction MS/MS peak to the pre-reaction MS/MS peak of the test compounds, the percentage of the remaining test compounds (remaining %) was calculated.
Regarding `COCc1ccc(NC(=O)c2c(C)n(C(C)(C)C)c3ncnc(N)c23)cc1` [Example 60, 4-amino-7-(tert-butyl)-N-(4-(methoxymethyl)phenyl)-6-methyl-7H-pyrrolo[2,3-d]pyrimidine-5-carboxamide], the “Remaining (%)” value was 81%. Under `COCCN(C)CC#Cc1c(C(=O)Nc2ccc(COC)cc2)c2c(N)ncnc2n1C1(C)CC1` [Example 197, 4-amino-6-(3-((2-methoxyethyl)(methyl)amino)prob-1-yn-1-yl)-N-(4-(methoxymethyl)phenyl)-7-(1-methylcyclopropyl)-7H-pyrrolo[2,3-d]pyrimidine-5-carboxamide] stands 52%; under `COCc1ccc(NC(=O)c2c(C#CC3CCN(C)CC3)n(C3(C)CC3)c3ncnc(N)c23)cc1` [Example 183, 4-amino-N-(4-(methoxymethyl)phenyl)-7-(1-methylcyclopropyl)-6-((1-methylpiperidin-4-yl)ethynyl)-7H-pyrrolo[2,3-d]pyrimidine-5-carboxamide], 77%; under `COCc1ccc(NC(=O)c2c(C(C)=O)n(C3(C)CC3)c3ncnc(N)c23)cc1` [Example 64, 6-acetyl-4-amino-N-(4-(methoxymethyl)phenyl)-7-(1-methylcyclopropyl)-7H-pyrrolo[2,3-d]pyrimidine-5-carboxamide], 89%.

For the molecule `COCc1ccc(NC(=O)c2c(-c3ccc(NC(C)=O)nc3)n(C3(C)CC3)c3ncnc(N)c23)cc1` [Example 147, 6-(6-acetamidopyridin-3-yl)-4-amino-N-(4-(methoxymethyl)phenyl)-7-(1-methylcyclopropyl)-7H-pyrrolo[2,3-d]pyrimidine-5-carboxamide], the “Remaining (%)” value was determined as 68%. Consider `COCc1ccc(NC(=O)c2c(C#Cc3cncs3)n(C3(C)CC3)c3ncnc(N)c23)cc1` [Example 193, 4-amino-N-[4-(methoxymethyl)phenyl]-7-(1-methylcyclopropyl)-6-(thiazol-5-ylethynyl)-7H-pyrrolo[2,3-d]pyrimidine-5-carboxamide], for which the “Remaining (%)” value was 51%. For `COCc1ccc(NC(=O)c2c(F)n(C3(C)CC3)c3ncnc(N)c23)cc1` [Example 69, 4-amino-6-fluoro-N-(4-(methoxymethyl)phenyl)-7-(1-methylcyclopropyl)-7H-pyrrolo[2,3-d]pyrimidine-5-carboxamide], the “Remaining (%)” value amounted to 69%.

Regarding `COCc1ccc(NC(=O)c2c(C#CC3(O)CCOCC3)n(C3(C)CC3)c3ncnc(N)c23)cc1` [Example 185, 4-amino-6-((4-hydroxytetrahydro-2H-pyran4-yl)ethynyl)-N-(4-(methoxymethyl)phenyl)-7-(1-methylcyclopropyl)-7H-pyrrolo[2,3-d]pyrimidine-5-carboxamide], the “Remaining (%)” value was determined as 80%.

For `COCc1ccc(NC(=O)c2c(C#Cc3ccn(C)n3)n(C3(C)CC3)c3ncnc(N)c23)cc1` [Example 92, 4-amino-N-(4-(methoxymethyl)phenyl)-6-((1-methyl-1H-pyrazol-3-yl)ethynyl)-7-(1-methylcyclopropyl)-7H-pyrrolo[2,3-d]pyrimidine-5-carboxamide], the “Remaining (%)” value is reported as 67%.

Take `C=Cc1c(C(=O)Nc2ccc(COC)cc2)c2c(N)ncnc2n1C1(C)CC1` [Example 65, 4-amino-N-(4-(methoxymethyl)phenyl)-7-(1-methylcyclopropyl)-6-vinyl-7H-pyrrolo[2,3-d]pyrimidine-5-carboxamide]: the “Remaining (%)” value was 79%.

For `COCc1ccc(NC(=O)c2c(-c3ccccc3)n(C3(C)CC3)c3ncnc(N)c23)cc1` [Example 154, 4-amino-N-(4-(methoxymethyl)phenyl)-7-(1-methylcyclopropyl)-6-phenyl-7H-pyrrolo[2,3-d]pyrimidine-5-carboxamide], the “Remaining (%)” value was determined as 50%. Consider `COCc1ccc(NC(=O)c2cn(C(C)(C)C)c3ncnc(N)c23)cc1F` [Example 30, 4-amino-7-(tert-butyl)-N-(3-fluoro-4-(methoxymethyl)phenyl)-7H-pyrrolo[2,3-d]pyrimidine-5-carboxamide], for which the “Remaining (%)” value was 54%. For `COCc1ccc(NC(=O)c2c(-c3cn[nH]c3)n(C3(C)CC3)c3ncnc(N)c23)cc1` [Example 167, 4-amino-N-(4-(methoxymethyl)phenyl)-7-(1-methylcyclopropyl)-6-(1H-pyrazol-4-yl)-7H-pyrrolo[2,3-d]pyrimidine-5-carboxamide], the “Remaining (%)” value stood at 80%. Take `COCc1ccc(NC(=O)c2c(C#CCC3(O)CCC3)n(C3(C)CC3)c3ncnc(N)c23)cc1` [Example 103, 4-amino-6-(3-(1-hydroxycyclobutyl)prop-1-yn-1-yl)-N-(4-(methoxymethyl)phenyl)-7-(1-methylcyclopropyl)-7H-pyrrolo[2,3-d]pyrimidine-5-carboxamide]: the “Remaining (%)” value worked out at 60%. On to `CCOc1c(C(=O)Nc2ccc(COC)cc2)c2c(N)ncnc2n1C1(C)CC1` [Example 127, 4-amino-6-ethoxy-N-(4-(methoxymethyl)phenyl)-7-(1-methylcyclopropyl)-7H-pyrrolo[2,3-d]pyrimidine-5-carboxamide], for which the “Remaining (%)” value came out at 70%. On to `CCn1nccc1C#Cc1c(C(=O)Nc2ccc(COC)cc2)c2c(N)ncnc2n1C1(C)CC1` [Example 114, 4-amino-6-((1-ethyl-1H-pyrazol-5-yl)ethynyl)-N-(4-(methoxymethyl)phenyl)-7-(1-methylcyclopropyl)-7H-pyrrolo[2,3-d]pyrimidine-5-carboxamide], for which the “Remaining (%)” value is recorded as 55%. `COCc1ccc(NC(=O)c2c(C#Cc3csc(C)n3)n(C3(C)CC3)c3ncnc(N)c23)cc1` [Example 126, 4-amino-N-(4-(methoxymethyl)phenyl)-7-(1-methylcyclopropyl)-6-((2-methylthiazol-4-yl)ethynyl)-7H-pyrrolo[2,3-d]pyrimidine-5-carboxamide]: the “Remaining (%)” value was determined as 69%. In the case of `COCc1ccc(NC(=O)c2c(C#CCC3(O)COC3)n(C3(C)CC3)c3ncnc(N)c23)cc1` [Example 125, 4-amino-6-(3-(3-hydroxyoxetan-3-yl)prop-1-yn-1-yl)-N-(4-(methoxymethyl)phenyl)-7-(1-methylcyclopropyl)-7H-pyrrolo[2,3-d]pyrimidine-5-carboxamide] it was 74%. Consider `COCc1ccc(NC(=O)c2cn(C(C)(C)CF)c3ncnc(N)c23)cc1` [Example 26, 4-amino-7-(1-fluoro-2-methylpropan-2-yl)-N-(4-(methoxymethyl)phenyl)-7H-pyrrolo[2,3-d]pyrimidine-5-carboxamide], for which the “Remaining (%)” value is 60%. Take `COCc1ccc(NC(=O)c2c(Cl)n(C3(C)CC3)c3ncnc(N)c23)cc1` [Example 56, 4-amino-6-chloro-N-[4-(methoxymethyl)phenyl]-7-(1-methylcyclopropyl)-7H-pyrrolo[2,3-d]pyrimidine-5-carboxamide]: the “Remaining (%)” value turned out to be 62%. As to `COCc1ccc(NC(=O)c2c(C#CCC3NC(=O)NC3=O)n(C3(C)CC3)c3ncnc(N)c23)cc1` (stereo not drawn) [Example 156, 4-amino-6-(3-(2,5-dioxoimidazolidin-4-yl)prop-1-yn-1-yl)-N-(4-(methoxymethyl)phenyl)-7-(1-methylcyclopropyl)-7H-pyrrolo[2,3-d]pyrimidine-5-carboxamide], the “Remaining (%)” value was 67%.
